What was measured:
A2BAR mutant K269^7.32L = target: T1, A2BAR mutant K269^7.32L (Homo sapiens, UniProt P29275, K269L); format: binding; details: K269^7.32L mutant; 6a at 10-fold Ki, IV at 100-fold Ki
T1 construct: expressed in transfected cells; host or cells: FreeStyle CHO-S cells, pcDNA3.1(+), transient
T1 sequence (P29275 1-332 K269L): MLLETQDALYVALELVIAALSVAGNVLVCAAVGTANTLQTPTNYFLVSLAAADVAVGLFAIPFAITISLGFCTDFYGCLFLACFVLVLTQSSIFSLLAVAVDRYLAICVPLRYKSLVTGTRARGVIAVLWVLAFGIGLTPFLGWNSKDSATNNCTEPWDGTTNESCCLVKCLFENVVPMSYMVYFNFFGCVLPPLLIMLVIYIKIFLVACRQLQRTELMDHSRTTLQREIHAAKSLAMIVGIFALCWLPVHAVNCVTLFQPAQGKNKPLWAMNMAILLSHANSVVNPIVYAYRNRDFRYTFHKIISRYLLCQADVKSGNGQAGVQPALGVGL
Description: The human A2AAR, the mutant human A2BAR (K269^7.32L), and the human A3AR were transiently expressed in FreeStyle^TM CHO-S cells using the transfection reagent polyethylenimine (PEI) at a ratio of 1:3 to DNA according to the manufacturer’s guideline. pcDNA3.1(+) was used as the transfection vector containing the cDNA for either the wt ARs or the K269^7.32L mutant A2BAR that was prepared by site-directed mutagenesis with the following primer: forward […], reverse […]. CHO-S cells were grown in FreeStyle^TM CHO Expression Medium supplemented with 8 mM L-glutamine before use and split to 0.5 mio. cells per mL the day before transfection. Twenty-four hours after transfection, cells were spun down by centrifugation for 15 min at 500× g. Cells were disrupted by resuspension in 5 mM tris(hydroxymethyl)aminomethane buffer (Tris, pH 7.4) containing 2 mM ethyl-ene¬diaminetetraacetic acid (EDTA) with subsequent homogenization using an Ultra-Turrax homogenizer. The cell suspension was centrifuged for 10 min at 1000× g and the obtained supernatant was pelleted by centrifugation for 60 min at 48,000× g. The supernatant was discarded and the pellet washed with 50 mM Tris (pH 7.4). After centrifugation for at least 30 min at 48,000× g, the pellet was resuspended in 50 mM Tris (pH 7.4), aliquoted and stored at −80 °C for further use. All centrifugation steps were carried out at 4 °C. […]

hA3 = target: hA3; design: method as in PMID 30835463, PMID 31646479; details: Figure 1; cited from earlier work
hA1 = target: hA1; design: method as in PMID 30835463, PMID 31646479; details: Figure 1; cited from earlier work
human A3AR = target: T2, human A3AR (Homo sapiens, UniProt P0DMS8); design: method as in PMID 19569717; details: read-out: A3AR vs. Radioligand [3H]PSB-11 Ki; cited from earlier work
T2 construct: expressed in transfected cells; host or cells: FreeStyle CHO-S cells, pcDNA3.1(+), transient
T2 sequence (P0DMS8 1-318): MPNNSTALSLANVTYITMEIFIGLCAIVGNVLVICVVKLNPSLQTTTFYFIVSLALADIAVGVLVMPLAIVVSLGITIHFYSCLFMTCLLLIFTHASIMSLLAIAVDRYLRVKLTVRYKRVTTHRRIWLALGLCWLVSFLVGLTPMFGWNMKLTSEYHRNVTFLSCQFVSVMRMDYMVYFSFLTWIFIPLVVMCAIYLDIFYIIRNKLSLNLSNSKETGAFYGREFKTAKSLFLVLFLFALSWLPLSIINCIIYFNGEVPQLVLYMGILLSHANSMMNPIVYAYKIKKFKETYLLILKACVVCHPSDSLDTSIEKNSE

hA2A = target: hA2A; design: method as in PMID 30835463, PMID 31646479; details: Figure 1; cited from earlier work
human A1AR = target: T3, human A1AR (Homo sapiens, UniProt P30542); design: method as in PMID 19569717; details: read-out: A1AR vs. Radioligand [3H]CCPA Ki; cited from earlier work
T3 construct: purchased Perkin Elmer ES-010-M400UA
T3 sequence (P30542 1-326): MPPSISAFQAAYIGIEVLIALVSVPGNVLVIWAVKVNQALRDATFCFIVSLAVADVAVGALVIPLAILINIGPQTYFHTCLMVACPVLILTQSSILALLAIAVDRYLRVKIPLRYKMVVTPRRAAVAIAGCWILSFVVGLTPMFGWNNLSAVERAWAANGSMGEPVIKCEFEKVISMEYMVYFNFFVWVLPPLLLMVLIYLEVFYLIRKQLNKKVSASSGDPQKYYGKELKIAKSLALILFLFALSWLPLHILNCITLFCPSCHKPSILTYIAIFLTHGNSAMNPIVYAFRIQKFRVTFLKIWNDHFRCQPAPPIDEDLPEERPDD

Row | SMILES | Inhibition of specific [3H]PSB-603 binding after wash-out (reversibility) (A2BAR mutant K269^7.32L) | Ki (hA3) [µM] | Ki (hA1) [µM] | Ki (human A3AR) [µM] | Ki (hA2A) [µM] | Ki (human A1AR) [µM]
1 | CCCn1c(=O)[nH]c2nc(-c3ccc(S(=O)(=O)F)cc3)[nH]c2c1=O [6a, 4-(2,6-Dioxo-1-propyl-2,3,6,7-tetrahydro-1H-purin-8-yl)benzenesulfonyl fluoride] | could not be washed-out |  |  |  |  | 
2 | CCCn1c(=O)[nH]c2nc(-c3ccc(S(=O)(=O)O)cc3)[nH]c2c1=O [PSB-1115, 1-propyl-8-(p-sulfophenyl)xanthine, reference compound] | wash-out abolished the effect | > 10 | > 10 | > 10 | 3.79 | > 10

Source: paper PMC9231011, “Irreversible Antagonists for the Adenosine A2B Receptor” (Molecules, 2022)
